Measurements from patent publication US6486128B1, “Method of using emamectin to treat fish parasites” (Schering-Plough Veterinary Corporation, priority 1999, dated 2002).
“And” between values parts separate entries of the source, which are not always exact repeats. Equal values may be shown once.

Columns and labels:
[1] = system: sea lice, Lepeophtheirus salmonis; test: Dose confirmation study II: efficacy of emamectin benzoate in feed against induced sea lice infestations on Atlantic salmon; type: in vivo
Procedure: (§1) Three studies were carried out at the Institute of Aquaculture Marine Environmental Research Laboratory in Machrihanish, Scotland. Atlantic salmon, Salmo salar L., post-smolts were obtained from a disease free stock and acclimatised at the test facility.
(§2) Fish were held in replicate groups in plastic fiber tanks, each with a volume of 0.54 m^3. Each tank was supplied with natural sea water at ambient temperature (7-14° C.) and salinity (30-35 ppt), at flow rates of approximately 18 l. min^−1. The tanks were fitted with mesh screens over the water outlet to retain uneaten fish pellets. Fish were observed daily for behavior and adverse drug reactions. Fish mortalities and the occurrence of gross sea lice damage were also recorded.
(§3) Sea lice were collected during harvesting on commercial salmon farms on the west coast of Scotland. Egg strings collected from gravid female lice were incubated in sea water at ambient temperature and within a salinity range of 32-35 ppt. Once the hatched larvae reached the copepodite stage, 38-170 copepodites per fish were introduced into each of four replicate tanks of fish and the water supply to each tank was turned off for approximately three hours to allow attachment of copepodites to the fish. This was repeated 4-5 times at intervals of 3-5 days until chalimus stages I, II, III and IV were present. Chalimus numbers were evaluated at day −1 or day −2 pre-treatment, on sub-samples of fish (N=6-9 fish per tank). At this point, fish were infested with pre-adult and adult lice, by adding 5-10 lice per fish to each tank. Water supplies to each tank were turned off for around one hour until all the lice had attached to the fish. Pre-treatment lice numbers were based on a sub-sample of the total population and presented as the mean number of chalimus per fish. Fish were then randomly re-distributed from the four original tanks to each control or treatment tank, as described in the experimental design for each study, and no further infestations were carried out during or after treatment.
(§4) The basal ration was Fulmar™ (BOCM Pauls Ltd.) 3.5 or 5 mm salmon feed pellets. Emamectin benzoate was dissolved in propylene glycol and mixed with fish oil prior to top coating the feed pellets. Control feeds were prepared in the same way with propylene glycol and fish oil. Treatment was administered at nominal dose rates of 0, 25, 50 and 100 μg kg^−1 fish biomass per day, at a feed rate of 0.5% biomass, for a period of seven consecutive days (days 0-6). Actual daily feed consumption was measured in each tank by collecting the uneaten feed pellets approximately thirty minutes after administration and subtracting the number of pellets from the daily ration fed. The mean dose consumed was calculated for each group as follows: [formula] Mean feed consumption (%)×nominal dose rate (μg·kg^−1)=Mean dose consumed (μg·kg^−1)
(§5) Evaluation of sea lice numbers was carried out at 7, 14 and 21 days from the start of treatment. Fish were anaesthetised in 40 mg·l^−1 ethyl-P-aminobenzoate (benzocaine) and each fish examined under a low power microscope. Lice were identified as chalimus I-IV, pre-adult I or II and adult stages. Pre-adults and adult lice were additionally identified as males or females. The numbers of each developmental stage were recorded. Any lice which detached in the anaesthetic solution were included in the counts and reattached to the fish after transferring them to fresh seawater. The fish were returned to the holding tanks after sampling and the same fish were evaluated at days 7, 14 and 21.
The water temperature was 9-12° C. and salinity was 30-34 ppt. Pre-treatment, mean fish weights were 418.2 g (±49 g S.D). Emamectin benzoate was administered at se rates of 0 and 50 μg kg^−1 biomass. There were three replicate tanks per treatment with a sample size of 15-16 fish per tank. […]

L. salmonis = test: All three studies summarised: oral treatment of Atlantic salmon against L. salmonis; type: in vivo, Lepeophtheirus salmonis
Procedure: as §1, §2, §3, §4, §5
Results were summarised as chalimus (chalimus stages I-IV), motile lice pre-adult and adult stages) and total lice (chalimus and motile stages combined). Data on the number of lice per fish were subjected to F-tests for homogeneity of variances and a correlation test to examine the normality of distribution. Fish weights and pre-treatment lice counts were tested by one-way ANOVA. […]

[2] = Daily observation of fish for behavior, adverse drug reactions and mortalities (three studies); type: in vivo, Atlantic salmon, Salmo salar L.; conditions: any of the doses tested (25, 50, 100 μg kg^−1 per day, 7 days in feed)
Procedure: as §2

[3] = nominal dose 50 μg·kg^−1/day (consumed 45.7) in feed Day 0-6, Day 7
[4] = nominal dose 50 μg·kg^−1/day (consumed 45.7) in feed Day 0-6, day 21
[5] = nominal dose 50 μg·kg^−1/day in feed Day 0-6, Day 14
[6] = nominal dose 50 μg·kg^−1/day in feed Day 0-6, Day 21
[7] = dose rate 50 μg kg^−1, three studies

Substance: emamectin benzoate
- cranial lesions resulting from sea lice activity ([1]; 50 μg kg^−1 groups, by day 21 (21% of control fish had lesions)): No cranial lesions
- % Reduction relative to controls (Total lice) [1, 3]: 46% and 45.9%
- Mean Total lice (± S.D) [1, 3]: 40.5 ± 12.2
- Mean chalimus (± S.D) [1, 3]: 30.0 ± 11.8
- Mean motiles (± S.D) [1, 3]: 10.5 ± 8.1
- % Reduction relative to controls (Total lice) ([1]; nominal dose 50 μg·kg^−1/day (consumed 45.7) in feed Day 0-6, Day 21): 95% and 94.6%
- Percentage of fish with no lice present (chalimus or motiles) [1, 4]: 27%
- Percentage of fish with no motile lice present [1, 4]: 66% and 66.3%
- % Reduction relative to controls (Total lice) [1, 5]: 70.7%
- Mean Total lice (± S.D) [1, 5]: 14.7 ± 5.9
- Mean chalimus (± S.D) [1, 5]: 12.7 ± 5.7
- Mean motiles (± S.D) [1, 5]: 2.0 ± 3.2
- Mean Total lice (± S.D) [1, 6]: 2.1 and 2.1 ± 2.1
- Mean chalimus (± S.D) [1, 6]: 1.5 ± 1.7
- Mean motiles (± S.D) [1, 6]: 0.6 and 0.6 ± 1.1
- Percentage fish mortality ([1]; nominal dose 50 μg·kg^−1/day, mortality figures include culled fish): 0%
- reduction of motile lice numbers (L. salmonis; 50 μg kg^−1, day 7 from the start of medication, three studies): 58-80%
- Percentage of fish with no motile lice present (L. salmonis; [7]): ≤ 87%
- percentage of fish with no lice present of any stage (L. salmonis; [7]): 20-30%
- reductions in sea lice numbers consistently achieved (L. salmonis; [7]): 94-95%
- efficacy against the immature chalimus stages (L. salmonis; oral treatment of Atlantic salmon): highly effective
- efficacy against the motile and chalimus stages of L. salmonis (L. salmonis; oral treatment of Atlantic salmon, all three studies): very good efficacy
- adverse effects or fish mortality attributed to treatment [2]: No adverse effects or fish mortality
